{"source": "patent US20200384072A1", "about": "“THERAPY OF IONIZING RADIATION-INDUCED DISORDERS” (SCK-CEN, priority 2019, published 2020)", "type_in_all_cases": "cell-based, human", "key": {"TIME cells": {"tested_on": "TIME cells", "test": "Intracellular ROS, CM-H2DCFDA IncuCyte live cell imaging, TIME cells", "details": "100 μM TAT-Gap19, 0.1 Gy, 45 min p.i.", "description": "(§1) In order to further assess intracellular ROS production, IncuCyte live cell imaging was used to have fast imaging in large number of replicates over multiple time points. TICAE and TIME cells were seeded in 96-well plate in 16 replicates at a density of 10000 cells/well. Three days later, cells reached 100% confluence. At 30 minutes before irradiation, a fresh MesoEndo Cell Growth Medium without phenol red (Sigma-Aldrich Co. LCC, Diegem, Belgium) supplemented with 10 μmol/L of the CM-H2DCFDA dye (Sigma-Aldrich Co. LCC, Diegem, Belgium) was added to the cells, with or without 100 μM TAT-Gap19 (Genosphere Biotechnologies, Paris, France). Fluorescence signals were measured at 45 min, 2 h and 3 h after irradiation (CM-H2DCFDA dye became saturated due to photoactivaton, and leaked outside the cells after this time) using the IncuCyte ZOOM® system (Essen BioScience, Ann Arbor, Mich., USA), 10× objective and FITC filter. […] Images were analysed making use of the software package provided by the manufacturer; we used a training set of images from different doses to define the image processing procedure. The so called Top-Hat background subtraction method was applied by measuring the radius of the fluorescence object (30 μm), and adjust a threshold of 1.5 (above the local background fluorescent intensity level), as described in IncuCyte™ Background Fluorescence Technical Note. […]"}, "TICAE cells [1]": {"tested_on": "TICAE cells", "test": "Intracellular ROS, CM-H2DCFDA IncuCyte live cell imaging, TICAE cells", "details": "100 μM TAT-Gap19, 0.1 and 5 Gy, 45 min p.i.", "description": "as §1"}, "TICAE cells [2]": {"tested_on": "TICAE cells", "test": "Cell death, Annexin V and Caspase 3/7 live cell imaging, TICAE cells", "description": "TICAE and TIME cells were seeded in 96 well plates at a density of 10000 cells/well in 8 biological replicates. After three days, cells were at 100% confluence. At 30 minutes before X-ray exposure, cells were refreshed with 200 μl medium supplemented with Caspase 3/7 reagent (1:1000 dilution) and Annexin V reagent (1:200 dilution) (Essen Bioscience, United Kingdom) with or without 100 μM TAT-Gap19 (Genosphere Biotechnologies, Paris, France). Fluorescence signals were measured from 4 h until 100 h after irradiation by imaging every 2 hours using the IncuCyte ZOOM® system (Essen BioScience, Ann Arbor, Mich., USA). Different channels (TRITC, FITC and phase contrast) and a 10× objective were used. Spectral unmixing set as 8% of red removed from green was applied. The IncuCyte software's processing definition was set to recognize red (Annexin V) and green (Caspase 3/7) stained cells, making use of the Top-Hat background subtraction method. Fluorescence signal was normalized to cell count."}, "TICAE cells [3]": {"tested_on": "TICAE cells", "test": "Cytokine detection (Magnetic Luminex) in supernatant after irradiation, TICAE cells", "description": "TICAE and TIME cells were seeded in a 6-well plate at a density of 2.5×10^5 cells/well in 5 to 6 biological replicates. Two to three days later, cells reached 100% confluence. At 30 minutes before X-ray exposure, cells were refreshed with medium with or without 100 μM TAT-Gap19 (Genosphere Biotechnologies, Paris, France). At 24 h, 48 h, 72 h and 7 d after irradiation, the supernatant was collected. Medium was changed only for the 7 d time point experiment at the fourth day with fresh medium alone or with medium supplemented with 100 μM TAT-Gap19. For the simultaneous detection of multiple cytokines in the supernatants, the Magnetic Luminex® Assay (R&D systems, Minneapolis, […]) was used following manufacturer's instructions. Briefly, supernatants, standards and microparticles were incubated into a 96-well plate which was pre-coated with cytokine-specific antibodies. The immobilized antibodies were able to bind the cytokines of interest after 2 h incubation, then the plate was washed and incubation with a biotinylated antibody cocktail specific to the cytokines of interest was performed for 1 h. A second wash was performed to remove the unbound biotinylated antibodies. Further, a streptavidin-phycoerythrin conjugate was added to each well to bind to the biotinylated antibodies. After a final wash, the microparticles were resuspended in buffer and read using the Luminex® MAGPIX Analyzer (R&D systems, Minneapolis, […]).\nIn order to normalize to cell number, DAPI staining was performed for the 48 h after irradiation time point. Briefly, cells were washed with phosphate buffered saline (PBS) and fixed with 4% paraformaldehyde (PFA) for 15 minutes at room temperature. Afterwards, the cells were washed with PBS and stained with 1 μg/mL 4′,6-Diamidine-2′-phenylindole (DAPI) dissolved in 1×TBST, 0.005 g/v % TSA blocking powder (PerkinElmer, FP1012) (TNB). After one hour, cells were washed with PBS and DAPI signals were visualized with the Nikon Eclipse Ti automated inverted wide-field epifluorescence microscope equipped with a 5× magnification (Plan Fluor, numerical aperture 0.6) dry objective and a Nikon IE2000-E camera controlled by the MS Elements software. The intensity of the DAPI signals was determined with the FIJI software. Cell count for 24 h after irradiation experiment was performed by Moxi Z Mini Automated Cell Counter (ORFLO Technologies, Ketchum, Id., USA) after trypsinization. For the 72 h and 7 d post-irradiation cell counts, we used IncuCyte ZOOM™ phase contrast imaging based on 49 images taken per well with the 10× objective."}, "[4]": {"details": "100 μM TAT-Gap19, 0 Gy and 0.1 Gy, from 4-16 h p.i. until the end"}, "[5]": {"details": "100 μM TAT-Gap19, 5 Gy, from 12 h p.i. until end of recording (100 h)"}, "[6]": {"details": "100 μM TAT-Gap19, 5 Gy, 72 h and 7 d p.i."}}, "data": [{"substance": "TAT-Gap19: connexin mimetic peptide, amino-acids 128-136 of the CL of Cx43 (SEQ ID NO: 2), Gap19 linked to TAT sequence; Cx43 hemichannel inhibitor (YGRKKRRQRRRKQIEIKKFK)", "values": [{"measurement": "ROS production (IncuCyte)", "setting": "TIME cells", "value": "reduced ROS production only significantly for the 0.1 Gy dose"}, {"measurement": "ROS production (IncuCyte)", "setting": "TICAE cells [1]", "value": "significantly reduced ROS production at both doses"}, {"measurement": "Annexin V", "setting": "TICAE cells [2]; [4]", "value": "significantly reduced"}, {"measurement": "Caspase 3/7 activity", "setting": "TICAE cells [2]; [4]", "value": "significantly reduced"}, {"measurement": "Annexin V", "setting": "TICAE cells [2]; [5]", "value": "significantly reduced"}, {"measurement": "Caspase 3/7 activity", "setting": "TICAE cells [2]; [5]", "value": "significantly reduced"}, {"measurement": "MCP-1 readout", "setting": "TICAE cells [3]; 100 μM TAT-Gap19, 0 Gy control and 0.1 Gy, 72 h p.i.", "value": "increased"}, {"measurement": "IL-8 (radiation-induced increase)", "setting": "TICAE cells [3]; [6]", "value": "significantly decreased these responses"}, {"measurement": "MCP-1 (radiation-induced increase)", "setting": "TICAE cells [3]; [6]", "value": "significantly decreased these responses"}, {"measurement": "VCAM-1 (radiation-induced increase)", "setting": "TICAE cells [3]; [6]", "value": "significantly decreased these responses"}, {"measurement": "all tested inflammatory markers", "setting": "TICAE cells [3]; 100 μM TAT-Gap19, 24 h time point", "value": "increased all tested markers"}, {"measurement": "Endothelin-1 (radiation-induced increase)", "setting": "TICAE cells [3]; 100 μM TAT-Gap19, 7 d p.i.", "value": "significantly reduced these responses"}, {"measurement": "IL-11 (radiation-induced increase)", "setting": "TICAE cells [3]; 100 μM TAT-Gap19, 7 d p.i.", "value": "significantly reduced these responses"}, {"measurement": "Endothelin-1 readout", "setting": "TICAE cells [3]; 100 μM TAT-Gap19, control and 0.1 Gy", "value": "decreased"}]}]}
